Data on seven molecules can be found in PubChem BioAssay (NCI).

For orientation: GI50 means the concentration at which growth is held to half of that of the control. The term TGI denotes the concentration giving total growth inhibition. A high value points to less potent growth arrest.

Common to all, as to experiment: DTP human tumour cell line panel, 48 h
Assay [1] relates to HCT-15 colon.
Assay [2] has as its system NCI-H226 lung.
In assay [3] the test system is HOP-92 NSCLC.
For assay [4], the system named is U251 CNS.
The test system of assay [5] is SN12C renal.
Assay [6] has as its system HL-60(TB) leukemia.
In assay [7] the test system is OVCAR-4 ovarian.
Assay [8] concerns EKVX NSCLC.
Assay [9] concerns SR leukemia.
In assay [10] the test system is NCI/ADR-RES ovarian.

Structures are written as SMILES. Values joined by “and” are separate entries in the source; they are usually repeats but may differ in a detail not shown here. Identical values can stand only once.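 The compound was tested at five concentrations on cells cultured in 96-well plates, with a 48-hour exposure period. At the GI50, growth is halved. TGI: total growth inhibition.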

Regarding `CCOC(=O)c1ccccc1-c1c2ccc(=[N+](C)C)cc-2oc2cc(N(C)C)ccc12`, the GI50 in [1] was 2.96 µM; in assay [2], 0.758 µM; in assay [3] it was 0.619 µM; in assay [4], 0.128 µM; in assay [5], 0.171 µM; in assay [6] it was 0.229 µM. Moreover, the GI50 in [7] was 0.167 µM; in assay [8], 0.129 µM; in assay [9], 0.298 µM; in assay [10], 27.2 µM. The TGI in assay [1] is more than 37.2 µM; in assay [2], 10.2 µM; in [3], 3.96 µM; in assay [4], more than 35.7 µM; in assay [5], 4.31 µM; in assay [6] it was 1.08 µM. Besides, the TGI in [7] is more than 41.5 µM; in assay [8], more than 38.9 µM; in [9], 27.4 µM; in assay [10], more than 100 µM.

With `Cc1c(C(=O)O[C@H]2[C@@H]3[C@H](C)CC[C@H]3[C@]3(C)O[C@@]2(C2CCCCC2)C[C@H]3OC(=O)CO)ccc2ccccc12`, the GI50 in assay [1] is 7.86 µM; in assay [2] it was 7.67 µM; in [3], 4.19 µM; in [4], 7.43 µM; in [5], 0.157 µM; in assay [6] it was 9.3 µM. For the same molecule, the GI50 is 7.6 µM in assay [7], 6.94 µM in assay [8], 7.36 µM in assay [9] and 5.65 µM in assay [10]. The TGI in [1] was 15.2 µM; in assay [2], 15.1 µM; in [3], 10.4 µM; in assay [4], 13.9 µM; in assay [5], 8.36 µM; in assay [6], 20 µM. Moreover, the TGI in assay [7] is 14.3 µM; in [8], 14.2 µM; in assay [9] it was 18.3 µM; in assay [10], 12.8 µM.

In the case of `O=S(=O)(O)ONC1=NCCN1`, the GI50 in assay [1], in assay [2], in assay [3], in assay [4], in [5] and in [6] was more than 100 µM each time. Further, the GI50 in [7], in [8], in assay [9] and in assay [10] was more than 100 µM throughout. Besides, the total growth inhibition concentration (TGI) in assay [1], in [2], in [3], in assay [4], in [5] and in [6] was more than 100 µM throughout. The TGI in assay [7], in assay [8], in assay [9] and in [10] was more than 100 µM in each case.

For `O=C(O)C(=O)CBr`, the GI50 is > 35.2 µM and 17.3 µM in [1]; more than 100 µM in [2]; > 33.2 µM and 19.1 µM in [3]; > 100 µM and 21.6 µM in assay [4]; > 46.2 µM and 19.1 µM in [5]; 12.1 µM and 18.9 µM in assay [6]. The GI50 in [7] is 17.5 µM and 17.4 µM; in assay [8], > 100 µM and 18.9 µM; in [9], > 21.1 µM and 25.8 µM; in assay [10] it was > 54.6 µM and 20.2 µM. Further, the TGI in [1] is > 53.1 µM and 33.1 µM; in assay [2], more than 100 µM; in assay [3], > 49.9 µM and 34 µM; in [4], > 100 µM and 42.9 µM; in assay [5], > 64 µM and 34.5 µM; in assay [6], 46.1 µM and 45.1 µM. Besides, the TGI in assay [7] is 31.4 µM; in assay [8], > 100 µM and 36.7 µM; in assay [9] it was > 64.8 µM and 71.1 µM; in assay [10], > 94.4 µM and 44 µM.

On to `NS(=O)(=O)c1ccc(NC(=O)Nc2ccccc2F)cc1`, for which the TGI in assay [1], in assay [2], in assay [3], in [4], in [5] and in assay [6] was more than 100 µM throughout. Further, the concentration for total growth inhibition (TGI) in [7], in [8], in assay [9] and in assay [10] was more than 100 µM in each case.

For the molecule `CC[C@H](NC(=O)[C@H](CS(=O)(=O)CC1CC1)N[C@@H](c1ccc(F)cc1)C(F)(F)F)C(=O)C(=O)NC1CC1`, the GI50 was more than 100 µM in [1]; more than 100 µM in [2]; 98.7 µM in assay [3]; more than 100 µM in assay [4]; more than 100 µM in [5]; more than 100 µM in [6]. The GI50 in assay [7] is 82.9 µM; in assay [8] it was 90.3 µM; in assay [9], 98.4 µM; in assay [10] it was more than 100 µM. Also, the TGI in assay [1], in [2], in assay [3], in assay [4], in assay [5] and in [6] was more than 100 µM throughout. Moreover, the TGI in [7], in [8], in assay [9] and in [10] was more than 100 µM in each case.

Consider `C=CCCC(=O)N1C=CC(=O)[C@H](O)[C@@H]1/C=C/c1ccccc1`, for which the GI50 in assay [1] is 2.39 µM; in assay [2], 9.57 µM; in assay [3] it was 30.8 µM; in assay [4] it was 7.44 µM; in assay [5], 12.7 µM; in assay [6], 4.35 µM. For the same molecule, the GI50 in [7] is 5.67 µM; in assay [8] it was 7.63 µM; in assay [9], 4.28 µM; in assay [10] it was 6.38 µM. For the same molecule, the TGI in assay [1] was more than 32.5 µM; in [2] it was more than 32.5 µM; in assay [3], more than 32.5 µM; in [4] it was more than 32.5 µM; in assay [5], more than 32.5 µM; in assay [6] it was 28 µM. The TGI in assay [7], in assay [8], in [9] and in [10] was more than 32.5 µM each time.
